Measured values: ChEMBL document CHEMBL3862033 (J Med Chem, 2016)

Tests used:
[1] = target: T1, 5-hydroxytryptamine receptor 2B (Homo sapiens, UniProt P41595); test: biochemical; type: cell-based, HEK293
[2] = target: T2, 5-hydroxytryptamine receptor 2C (Homo sapiens) (UniProt P28335); test: Displacement of [3H]mesulergine from human 5-HT2CR expressed in Flp-In HEK cell membranes at 10 uM incubated for 90 mins under dark condition by microbeta scintillation counting method relative to control; settings: HEK293
T2 sequence (whole entry): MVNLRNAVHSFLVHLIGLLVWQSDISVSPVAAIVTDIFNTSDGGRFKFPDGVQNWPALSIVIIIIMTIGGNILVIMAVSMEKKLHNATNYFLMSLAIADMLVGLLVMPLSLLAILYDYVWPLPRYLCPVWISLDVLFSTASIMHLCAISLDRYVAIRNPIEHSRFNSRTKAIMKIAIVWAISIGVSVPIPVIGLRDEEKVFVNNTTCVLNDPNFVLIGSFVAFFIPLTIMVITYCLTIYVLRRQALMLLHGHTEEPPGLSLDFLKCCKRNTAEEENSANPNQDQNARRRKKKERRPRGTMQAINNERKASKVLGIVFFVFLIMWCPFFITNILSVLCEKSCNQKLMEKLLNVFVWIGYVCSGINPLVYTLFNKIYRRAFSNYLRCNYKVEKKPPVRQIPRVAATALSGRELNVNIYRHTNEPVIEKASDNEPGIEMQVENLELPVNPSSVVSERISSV

[3] = target: T3, 5-hydroxytryptamine receptor 2C (Homo sapiens, UniProt P28335); test: Displacement of [3H]mesulergine from human 5-HT2CR expressed in Flp-In HEK cell membranes incubated for 90 mins under dark condition by microbeta scintillation counting method; parameters: species or system HEK293
T3 sequence (P28335 whole entry): T2 sequence (whole entry)

[4] = target: T4, 5-hydroxytryptamine receptor 2A (Homo sapiens, UniProt P28223); test: Displacement of [3H]ketanserin from human 5-HT2A receptor expressed in HEK-T cell membranes incubated for 90 mins under dark condition by microbeta scintillation counting method
T4 sequence (P28223 whole entry): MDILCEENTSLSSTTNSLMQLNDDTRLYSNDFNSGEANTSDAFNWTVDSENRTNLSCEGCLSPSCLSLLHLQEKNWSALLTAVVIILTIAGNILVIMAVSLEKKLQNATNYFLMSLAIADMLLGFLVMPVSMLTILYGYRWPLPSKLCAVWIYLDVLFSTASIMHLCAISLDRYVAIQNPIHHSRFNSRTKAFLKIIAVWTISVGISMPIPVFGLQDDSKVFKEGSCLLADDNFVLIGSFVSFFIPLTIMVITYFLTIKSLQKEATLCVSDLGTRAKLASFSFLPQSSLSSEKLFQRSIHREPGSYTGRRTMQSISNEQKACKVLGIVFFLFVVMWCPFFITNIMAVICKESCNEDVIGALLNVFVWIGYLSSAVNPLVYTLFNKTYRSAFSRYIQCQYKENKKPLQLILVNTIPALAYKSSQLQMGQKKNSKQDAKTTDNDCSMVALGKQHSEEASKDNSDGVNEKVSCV

[5] = target: T4, 5-hydroxytryptamine receptor 2A; test: Displacement of [3H]ketanserin from human 5-HT2A receptor expressed in HEK-T cell membranes at 10 uM incubated for 90 mins under dark condition by microbeta scintillation counting method relative to control
[6] = target: 5-hydroxytryptamine receptor 1D (Homo sapiens) (UniProt P28221); test: Displacement of [3H]5-CT from human 5-HT1D receptor expressed in HEK-T cell membranes at 10 uM incubated for 90 mins under dark condition by microbeta scintillation counting method relative to control
Chain of 5-hydroxytryptamine receptor 1D (Homo sapiens) (P28221 whole entry): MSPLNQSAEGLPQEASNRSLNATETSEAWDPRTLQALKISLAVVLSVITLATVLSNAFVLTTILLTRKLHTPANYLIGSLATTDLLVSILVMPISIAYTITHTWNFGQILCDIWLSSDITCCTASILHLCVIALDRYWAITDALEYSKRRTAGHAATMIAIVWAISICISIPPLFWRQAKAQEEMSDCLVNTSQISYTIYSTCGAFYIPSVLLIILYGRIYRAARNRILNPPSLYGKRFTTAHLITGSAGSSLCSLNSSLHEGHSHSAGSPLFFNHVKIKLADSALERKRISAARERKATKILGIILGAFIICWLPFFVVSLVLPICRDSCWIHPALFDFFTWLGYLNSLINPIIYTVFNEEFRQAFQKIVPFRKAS

[7] = target: 5-hydroxytryptamine receptor 1E (Homo sapiens) (UniProt P28566); test: Displacement of [3H]5-HT from human 5-HT1E receptor expressed in HEK cell membranes at 10 uM incubated for 90 mins under dark condition by microbeta scintillation counting method relative to control; settings: HEK293
Chain of 5-hydroxytryptamine receptor 1E (Homo sapiens) (P28566 whole entry): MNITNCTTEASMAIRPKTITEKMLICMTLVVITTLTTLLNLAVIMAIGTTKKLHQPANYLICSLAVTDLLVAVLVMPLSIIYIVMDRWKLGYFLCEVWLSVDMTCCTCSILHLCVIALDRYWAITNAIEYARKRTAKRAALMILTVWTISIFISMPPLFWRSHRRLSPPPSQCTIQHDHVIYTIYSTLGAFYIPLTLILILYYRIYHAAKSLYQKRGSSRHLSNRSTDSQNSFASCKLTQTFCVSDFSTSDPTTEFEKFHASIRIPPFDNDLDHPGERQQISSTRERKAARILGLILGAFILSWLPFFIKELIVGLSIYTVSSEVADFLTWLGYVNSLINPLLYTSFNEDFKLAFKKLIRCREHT

[8] = target: 5-hydroxytryptamine receptor 4 (Homo sapiens) (UniProt Q13639); test: Displacement of [3H]GR113808 from human 5-HT4 receptor at 10 uM incubated for 90 mins under dark condition by microbeta scintillation counting method relative to control
Chain of 5-hydroxytryptamine receptor 4 (Homo sapiens) (Q13639 whole entry): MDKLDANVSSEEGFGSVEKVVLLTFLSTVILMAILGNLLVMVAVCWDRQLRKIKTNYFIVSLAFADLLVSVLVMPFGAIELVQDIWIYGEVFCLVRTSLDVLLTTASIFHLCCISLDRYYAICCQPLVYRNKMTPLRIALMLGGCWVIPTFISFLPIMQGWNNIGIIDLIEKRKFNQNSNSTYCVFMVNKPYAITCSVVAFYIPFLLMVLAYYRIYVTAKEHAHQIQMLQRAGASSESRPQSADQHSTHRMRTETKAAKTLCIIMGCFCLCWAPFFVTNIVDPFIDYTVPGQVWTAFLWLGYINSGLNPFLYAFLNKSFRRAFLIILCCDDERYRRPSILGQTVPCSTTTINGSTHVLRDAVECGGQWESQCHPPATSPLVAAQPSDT

[9] = target: 5-hydroxytryptamine receptor 6 (Homo sapiens) (UniProt P50406); test: Displacement of [3H]LSD from human 5-HT6 receptor expressed in HEK cell membranes at 10 uM incubated for 90 mins under dark condition by microbeta scintillation counting method relative to control; settings: HEK293
Chain of 5-hydroxytryptamine receptor 6 (Homo sapiens) (P50406 whole entry): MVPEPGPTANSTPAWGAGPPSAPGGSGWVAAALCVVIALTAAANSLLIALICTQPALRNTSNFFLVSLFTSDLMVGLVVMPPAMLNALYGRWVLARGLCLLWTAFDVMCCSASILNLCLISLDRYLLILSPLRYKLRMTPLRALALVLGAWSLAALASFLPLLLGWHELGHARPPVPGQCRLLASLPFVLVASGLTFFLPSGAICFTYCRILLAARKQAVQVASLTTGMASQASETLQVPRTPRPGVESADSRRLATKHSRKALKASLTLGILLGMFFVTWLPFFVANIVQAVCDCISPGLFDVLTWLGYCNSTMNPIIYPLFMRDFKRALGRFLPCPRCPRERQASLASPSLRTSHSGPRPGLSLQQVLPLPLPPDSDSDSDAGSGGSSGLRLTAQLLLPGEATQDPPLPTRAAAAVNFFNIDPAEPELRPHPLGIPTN

[10] = target: T1, 5-hydroxytryptamine receptor 2B; settings: HEK293, at 10 µM
[11] = target: T5, 5-hydroxytryptamine receptor 1A (Homo sapiens) (UniProt P08908); test: Displacement of [3H]WAY100635 from human 5-HT1AR expressed in CHO cell membranes at 10 uM incubated for 90 mins under dark condition by microbeta scintillation counting method relative to control
T5 sequence (whole entry): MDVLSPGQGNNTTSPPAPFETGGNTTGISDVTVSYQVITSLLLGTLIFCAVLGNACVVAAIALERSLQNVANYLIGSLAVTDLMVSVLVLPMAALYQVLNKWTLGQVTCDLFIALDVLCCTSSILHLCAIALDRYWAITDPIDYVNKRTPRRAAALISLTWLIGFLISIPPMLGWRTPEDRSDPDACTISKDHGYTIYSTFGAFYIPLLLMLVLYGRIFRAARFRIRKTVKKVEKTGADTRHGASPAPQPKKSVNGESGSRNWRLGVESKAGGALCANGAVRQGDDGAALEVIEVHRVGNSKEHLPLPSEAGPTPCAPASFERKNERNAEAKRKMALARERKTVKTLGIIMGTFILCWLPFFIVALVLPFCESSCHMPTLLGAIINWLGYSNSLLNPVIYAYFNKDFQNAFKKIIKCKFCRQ

[12] = target: 5-hydroxytryptamine receptor 7 (Homo sapiens) (UniProt P34969); test: Displacement of [3H]LSD from human 5-HT7A receptor expressed in HEK cell membranes at 10 uM incubated for 90 mins under dark condition by microbeta scintillation counting method relative to control; settings: HEK293
Chain of 5-hydroxytryptamine receptor 7 (Homo sapiens) (P34969 whole entry): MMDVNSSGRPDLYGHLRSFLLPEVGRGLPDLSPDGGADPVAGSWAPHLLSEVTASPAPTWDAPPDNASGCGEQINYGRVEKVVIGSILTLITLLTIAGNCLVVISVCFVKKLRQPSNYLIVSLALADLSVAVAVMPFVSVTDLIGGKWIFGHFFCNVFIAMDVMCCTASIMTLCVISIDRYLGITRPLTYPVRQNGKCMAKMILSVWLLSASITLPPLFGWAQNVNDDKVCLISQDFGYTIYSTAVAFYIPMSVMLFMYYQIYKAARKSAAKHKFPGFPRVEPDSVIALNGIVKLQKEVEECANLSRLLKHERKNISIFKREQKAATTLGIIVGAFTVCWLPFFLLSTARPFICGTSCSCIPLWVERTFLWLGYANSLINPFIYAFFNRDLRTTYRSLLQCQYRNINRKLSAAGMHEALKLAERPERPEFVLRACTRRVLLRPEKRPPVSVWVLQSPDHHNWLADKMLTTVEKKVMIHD

[13] = target: 5-hydroxytryptamine receptor 5A (Homo sapiens) (UniProt P47898); test: Displacement of [3H]LSD from human 5-HT5A receptor expressed in Flp-In-CHO cell membranes incubated for 90 mins under dark condition by microbeta scintillation counting method relative to control; parameters: concentration or dose not given beside the values
Chain of 5-hydroxytryptamine receptor 5A (Homo sapiens) (P47898 whole entry): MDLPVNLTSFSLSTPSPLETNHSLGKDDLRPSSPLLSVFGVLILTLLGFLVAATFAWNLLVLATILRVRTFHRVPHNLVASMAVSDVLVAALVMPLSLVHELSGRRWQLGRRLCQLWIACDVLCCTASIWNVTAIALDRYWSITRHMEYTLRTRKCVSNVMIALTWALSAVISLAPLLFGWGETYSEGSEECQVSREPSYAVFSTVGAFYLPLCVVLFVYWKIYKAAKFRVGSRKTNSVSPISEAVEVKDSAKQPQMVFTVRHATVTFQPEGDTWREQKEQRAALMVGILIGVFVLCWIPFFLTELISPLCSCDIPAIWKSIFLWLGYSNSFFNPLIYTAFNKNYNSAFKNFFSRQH

[14] = target: 5-hydroxytryptamine receptor 1B (Homo sapiens) (UniProt P28222); test: Displacement of [3H]5-CT from human 5-HT1BR expressed in HEK cell membranes at 10 uM incubated for 90 mins under dark condition by microbeta scintillation counting method relative to control; settings: HEK293
Chain of 5-hydroxytryptamine receptor 1B (Homo sapiens) (P28222 whole entry): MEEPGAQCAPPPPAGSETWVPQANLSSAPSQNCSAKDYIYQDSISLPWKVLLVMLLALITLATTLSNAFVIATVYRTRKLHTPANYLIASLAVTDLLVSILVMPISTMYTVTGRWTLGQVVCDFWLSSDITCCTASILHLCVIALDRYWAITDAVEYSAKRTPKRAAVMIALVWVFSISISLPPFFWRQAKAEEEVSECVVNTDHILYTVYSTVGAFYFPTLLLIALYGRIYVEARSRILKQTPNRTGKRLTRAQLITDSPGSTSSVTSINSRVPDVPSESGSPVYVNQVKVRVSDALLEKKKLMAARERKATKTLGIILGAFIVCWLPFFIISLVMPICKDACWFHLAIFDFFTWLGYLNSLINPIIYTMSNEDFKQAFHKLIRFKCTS

[15] = target: T6, 5-hydroxytryptamine receptor 3A (Homo sapiens) (UniProt P46098); test: Displacement of [3H]GR65630 from human 5-HT3 receptor expressed in HEK-T cell membranes at 10 uM incubated for 90 mins under dark condition by microbeta scintillation counting method relative to control
T6 sequence (whole entry): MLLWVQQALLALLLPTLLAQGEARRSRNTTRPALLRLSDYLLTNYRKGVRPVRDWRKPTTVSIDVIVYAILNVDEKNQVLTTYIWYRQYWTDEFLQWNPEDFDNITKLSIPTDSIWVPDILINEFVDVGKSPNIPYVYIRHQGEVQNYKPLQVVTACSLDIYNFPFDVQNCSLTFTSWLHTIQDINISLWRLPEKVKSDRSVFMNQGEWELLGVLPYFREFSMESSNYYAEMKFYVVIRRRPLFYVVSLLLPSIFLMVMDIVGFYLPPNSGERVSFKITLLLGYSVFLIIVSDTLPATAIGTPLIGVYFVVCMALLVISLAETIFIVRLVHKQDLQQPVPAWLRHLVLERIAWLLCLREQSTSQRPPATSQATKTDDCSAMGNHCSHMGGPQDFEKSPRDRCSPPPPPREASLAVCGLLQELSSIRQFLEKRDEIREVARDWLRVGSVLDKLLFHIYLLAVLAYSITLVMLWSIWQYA

Adenosine receptor A1 = target: T7, Adenosine receptor A1 (Homo sapiens, UniProt P30542); test: Displacement of [3H]N6-phenylisopropyladenosine from recombinant human A1AR expressed in CHO cell membranes after 60 mins by liquid scintillation counting method
T7 sequence (P30542 whole entry): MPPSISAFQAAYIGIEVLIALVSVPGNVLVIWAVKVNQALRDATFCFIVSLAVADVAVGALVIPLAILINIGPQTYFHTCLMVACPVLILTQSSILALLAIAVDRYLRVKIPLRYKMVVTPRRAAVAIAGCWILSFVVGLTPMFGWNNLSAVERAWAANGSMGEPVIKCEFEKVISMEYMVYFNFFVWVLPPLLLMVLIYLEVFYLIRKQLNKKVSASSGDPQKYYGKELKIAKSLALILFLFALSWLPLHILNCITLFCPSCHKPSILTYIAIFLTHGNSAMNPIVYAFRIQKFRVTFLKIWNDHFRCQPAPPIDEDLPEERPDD

Adenosine receptor A3 = target: T8, Adenosine receptor A3 (Homo sapiens, UniProt P0DMS8); test: Displacement of [125l]N 6-(4-amino-3-iodobenzyl)adenosine-5'-N-methyluronamide from recombinant human A3AR expressed in CHO cell membranes after 60 mins by gamma counting method
T8 sequence (P0DMS8 whole entry): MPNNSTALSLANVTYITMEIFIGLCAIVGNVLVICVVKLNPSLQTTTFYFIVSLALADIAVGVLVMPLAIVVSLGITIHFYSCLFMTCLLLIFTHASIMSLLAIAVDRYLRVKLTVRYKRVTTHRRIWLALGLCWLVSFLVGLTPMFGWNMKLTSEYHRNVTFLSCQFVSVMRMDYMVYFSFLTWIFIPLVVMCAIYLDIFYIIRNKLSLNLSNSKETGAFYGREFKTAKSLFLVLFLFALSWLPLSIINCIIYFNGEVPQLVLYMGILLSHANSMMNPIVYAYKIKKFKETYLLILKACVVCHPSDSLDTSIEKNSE

Adenosine receptor A2a = Adenosine receptor A2a (Homo sapiens, UniProt P29274); test: Displacement of [3 H]2-[p-(2-carboxyethyl)phenyl-ethylamino]-5'-N-ethylcarboxamidoadenosine from recombinant human adenosine receptor A2A expressed in HEK293 cell membranes at 10 uM after 60 mins by liquid scintillation counting method relative to control
Chain of Adenosine receptor A2a (P29274 whole entry): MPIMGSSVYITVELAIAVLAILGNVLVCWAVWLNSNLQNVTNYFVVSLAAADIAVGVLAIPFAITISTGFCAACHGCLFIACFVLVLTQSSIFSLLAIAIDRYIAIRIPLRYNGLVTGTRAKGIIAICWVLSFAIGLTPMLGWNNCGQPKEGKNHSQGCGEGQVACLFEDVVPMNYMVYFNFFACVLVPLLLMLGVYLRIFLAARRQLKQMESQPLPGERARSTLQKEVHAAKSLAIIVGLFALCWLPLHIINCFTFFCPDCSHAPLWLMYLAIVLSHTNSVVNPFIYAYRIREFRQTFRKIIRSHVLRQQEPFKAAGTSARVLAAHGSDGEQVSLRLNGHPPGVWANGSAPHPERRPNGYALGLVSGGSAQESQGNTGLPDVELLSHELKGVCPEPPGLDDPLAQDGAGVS

T1 sequence (P41595 whole entry): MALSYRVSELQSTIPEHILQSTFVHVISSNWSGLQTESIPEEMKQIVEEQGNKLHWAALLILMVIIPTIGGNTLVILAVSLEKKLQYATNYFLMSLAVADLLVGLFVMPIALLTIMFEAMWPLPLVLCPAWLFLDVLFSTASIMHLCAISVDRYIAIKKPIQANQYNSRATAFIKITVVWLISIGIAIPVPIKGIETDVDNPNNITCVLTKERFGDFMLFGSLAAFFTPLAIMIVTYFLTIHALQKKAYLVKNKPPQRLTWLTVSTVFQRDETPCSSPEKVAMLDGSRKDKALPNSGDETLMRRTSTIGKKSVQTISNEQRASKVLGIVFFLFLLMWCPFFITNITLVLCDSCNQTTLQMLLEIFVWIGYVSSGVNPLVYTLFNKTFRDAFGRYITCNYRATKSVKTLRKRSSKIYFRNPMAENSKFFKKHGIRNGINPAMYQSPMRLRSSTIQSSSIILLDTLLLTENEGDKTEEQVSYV

SMILES | Ki [1] [nM] | inhibition [2] [%] | inhibition [10] [%] | inhibition (Adenosine receptor A2a) [%] | Ki [3] [nM] | Ki [4] [nM] | inhibition [5] [%] | inhibition [6] [%] | inhibition [7] [%] | inhibition [8] [%] | inhibition [9] [%] | inhibition [11] [%] | inhibition [12] [%] | inhibition [13] [%] | inhibition [14] [%] | inhibition [15] [%] | Ki (Adenosine receptor A1) [nM] | Ki (Adenosine receptor A3) [nM]
CC(C)[C@@H](Nc1nc(Cl)nc2c1ncn2[C@H]1[C@H](O)[C@H](O)[C@]2(CO)C[C@H]12)C1CC1 |  | > 50 |  |  | 190 | > 10000 | < 10 | < 50 | < 50 | < 50 | < 50 | < 50 | < 50 | < 50 | < 50 | < 50 | 103 | 1240
O[C@@H]1[C@H](O)[C@@H]2C[C@@H]2[C@H]1n1cnc2c(NC(C3CC3)C3CC3)nc(Cl)nc21 | 675 |  |  |  |  | > 10000 | < 10 |  |  |  |  |  |  |  |  |  |  | 
CNC(=O)[C@H]1O[C@@H](n2cnc3c(NCc4cccc(I)c4)ncnc32)[C@H](O)[C@@H]1O [IB-MECA] |  | > 50 | > 50 |  |  | > 10000 | < 10 | < 50 | < 50 | < 50 | < 50 | < 50 | < 50 | < 50 | < 50 | < 50 |  | 
OC[C@H]1O[C@@H](n2cnc3c(NC(C4CC4)C4CC4)ncnc32)[C@H](O)[C@@H]1O |  | 11 | 38 |  |  | > 10000 | < 10 | < 50 | < 50 | < 50 | < 50 | < 50 | < 50 | < 50 | < 50 | < 50 |  | 
CC(C)[C@H](Nc1nc(Cl)nc2c1ncn2[C@H]1[C@H](O)[C@H](O)[C@]2(CO)C[C@H]12)C1CC1 |  | > 50 |  |  | 672 | > 10000 | < 10 | < 50 | < 50 | < 50 | < 50 | < 50 | < 50 | < 50 | < 50 | < 50 | 104 | 3450
Nc1nc(Cl)nc2c1ncn2[C@@H]1O[C@H](CO)[C@@H](O)[C@H]1O |  | < 10 | < 10 |  |  | > 10000 | 46 | < 50 | < 50 | < 50 | < 50 | < 50 | < 50 | < 50 | < 50 | < 50 | 2.8 | 

Further lines, with some results ahead:

Ki [1] [nM] | inhibition [2] [%] | inhibition [10] [%] | inhibition (Adenosine receptor A2a) [%] | SMILES | Ki [3] [nM] | Ki [4] [nM] | inhibition [5] [%] | inhibition [6] [%] | inhibition [7] [%] | inhibition [8] [%] | inhibition [9] [%] | inhibition [11] [%] | inhibition [12] [%] | inhibition [13] [%] | inhibition [14] [%] | inhibition [15] [%] | Ki (Adenosine receptor A1) [nM] | Ki (Adenosine receptor A3) [nM]
2770 | > 50 |  |  | CNC(=O)[C@H]1O[C@@H](n2cnc3c(NCc4cccc(I)c4)nc(Cl)nc32)[C@H](O)[C@@H]1O [NAMODENOSON] | 10000 | > 10000 | 30 |  |  |  |  |  |  |  |  |  |  | 
 | < 10 | < 10 |  | CNC(=O)[C@H]1O[C@@H](n2cnc3c(N)ncnc32)[C@H](O)[C@@H]1O |  | > 10000 | < 10 | < 50 | < 50 | < 50 | < 50 | < 50 | < 50 | < 50 | < 50 | < 50 |  | 
 | > 50 |  | < 10 | O=C(O)[C@@]12C[C@@H]1[C@@H](n1cnc3c(NC(C4CC4)C4CC4)nc(Cl)nc31)[C@H](O)[C@@H]2O | 2580 | > 10000 | < 10 | < 50 | < 50 | < 50 | < 50 | < 50 | < 50 | < 50 | < 50 | < 50 |  | 5980
> 10000 | < 10 | > 50 |  | Nc1nc(Cl)nc2c1ncn2[C@H]1[C@H](O)[C@H](O)[C@]2(CO)C[C@H]12 |  | > 10000 | < 10 | < 50 | < 50 | < 50 | < 50 | < 50 | < 50 | < 50 | < 50 | < 50 |  | 
